# From PMC9322122, “Development of (4-Phenylamino)quinazoline Alkylthiourea Derivatives as Novel NF-κB Inhibitors” (Pharmaceuticals, 2022)
# Tests used:
# [1] = Cell viability (WST-1), HEK293; assay type: cell-based; settings: human, HEK293 cells, mean ± SEM, n = 3
# Procedure: (§1) Cells were incubated with the WST-1 reagent (Thermo Fisher Scientific, Waltham, MA, USA) at 37 °C for 2 h. The cell viability was determined by spectrophotometer at 450 nm.
# [2] = Cell viability (WST-1), A549; assay type: cell-based; settings: human, A549 cells, mean ± SEM, n = 3
# Procedure: as §1
# NF-κB = NF-κB luciferase reporter assay; assay type: cell-based; settings: Homo sapiens, NF-κB-luciferase-transfected HEK293 cells, TNFα 50 ng/mL; for inhibition at 10 µM: mean ± SEM, n = 3, read-out: NF-κB Luciferase Activity Inh %
# Procedure: NF-κB Luciferase Reporter Vector was purchased from Signosis (Santa Clara, CA, USA) and transfected into HEK-293 cells using FuGENE HD (Promega, Fitchburg, MA, USA) following the manufacturer’s protocol. The transfected cells were incubated in serum-free DMEM for 16 h and then treated with DMSO or indicated compounds. After 3 h, cells were treated with or without 50 ng/mL of Recombinant Human TNFα Protein (R&D systems, Minneapolis, MN, USA) for another 3 h. The protein lysates were analyzed using Steady-Glo® Luciferase Assay System (Promega, Fitchburg, MA, USA) and TECAN Infinite 200 pro (Männedorf, Switzerland).
# Recombinant EGFR kinase = Recombinant EGFR kinase (Homo sapiens, UniProt P00533); test: Recombinant EGFR kinase activity; assay type: biochemical; settings: read-out: Recombinant EGFR Kinase Activity (%inh at 150 nM)
# TNFα production = TNFα production in LPS-activated dTHP-1 cells (ELISA); assay type: cell-based; settings: Homo sapiens
# Procedure: (§2) The HEK-293 (ATCC Cat# CRL-1573, RRID:CVCL_0045) and human monocytic THP−1 cells (ATCC Cat# TIB-202, RRID:CVCL_0006) were, respectively, cultured in DMEM and RPMI 1640 media supplemented with 10% fetal bovine serum, 2 mM L-glutamine, and 1× Antibiotic-Antimycotic at 37 °C in a humidified incubator with 5% CO2. THP−1 cells were differentiated by 100 nM phorbol-12-myristate-13-acetate (PMA) for 4 h and then rested for 44 h as dTHP−1 cells.
# (§3) The dTHP−1 cells were treated with indicated compounds for 3 h and then activated with or without 100 ng/mL lipopolysaccharide (LPS; E. coli 0111:B4) for another 24 h. The levels of human IL-6 and TNFα in supernatants were measured by DuoSet® ELISA Development System (R&D systems, Minneapolis, MN, USA) according to the manufacturer’s protocol.
# IL-6 production = IL-6 production in LPS-activated dTHP-1 cells (ELISA); assay type: cell-based, human; settings: Homo sapiens
# Procedure: as §2, §3
# dTHP−1 cells = test: Cell viability of dTHP-1 cells with or without LPS; assay type: cell-based, human; settings: in % (unit assumed)
# Procedure: as §2, §1, §3
# [3] = LPS-activated dTHP-1 cells, 24 h
# Chain of Recombinant EGFR kinase (P00533 25-1210): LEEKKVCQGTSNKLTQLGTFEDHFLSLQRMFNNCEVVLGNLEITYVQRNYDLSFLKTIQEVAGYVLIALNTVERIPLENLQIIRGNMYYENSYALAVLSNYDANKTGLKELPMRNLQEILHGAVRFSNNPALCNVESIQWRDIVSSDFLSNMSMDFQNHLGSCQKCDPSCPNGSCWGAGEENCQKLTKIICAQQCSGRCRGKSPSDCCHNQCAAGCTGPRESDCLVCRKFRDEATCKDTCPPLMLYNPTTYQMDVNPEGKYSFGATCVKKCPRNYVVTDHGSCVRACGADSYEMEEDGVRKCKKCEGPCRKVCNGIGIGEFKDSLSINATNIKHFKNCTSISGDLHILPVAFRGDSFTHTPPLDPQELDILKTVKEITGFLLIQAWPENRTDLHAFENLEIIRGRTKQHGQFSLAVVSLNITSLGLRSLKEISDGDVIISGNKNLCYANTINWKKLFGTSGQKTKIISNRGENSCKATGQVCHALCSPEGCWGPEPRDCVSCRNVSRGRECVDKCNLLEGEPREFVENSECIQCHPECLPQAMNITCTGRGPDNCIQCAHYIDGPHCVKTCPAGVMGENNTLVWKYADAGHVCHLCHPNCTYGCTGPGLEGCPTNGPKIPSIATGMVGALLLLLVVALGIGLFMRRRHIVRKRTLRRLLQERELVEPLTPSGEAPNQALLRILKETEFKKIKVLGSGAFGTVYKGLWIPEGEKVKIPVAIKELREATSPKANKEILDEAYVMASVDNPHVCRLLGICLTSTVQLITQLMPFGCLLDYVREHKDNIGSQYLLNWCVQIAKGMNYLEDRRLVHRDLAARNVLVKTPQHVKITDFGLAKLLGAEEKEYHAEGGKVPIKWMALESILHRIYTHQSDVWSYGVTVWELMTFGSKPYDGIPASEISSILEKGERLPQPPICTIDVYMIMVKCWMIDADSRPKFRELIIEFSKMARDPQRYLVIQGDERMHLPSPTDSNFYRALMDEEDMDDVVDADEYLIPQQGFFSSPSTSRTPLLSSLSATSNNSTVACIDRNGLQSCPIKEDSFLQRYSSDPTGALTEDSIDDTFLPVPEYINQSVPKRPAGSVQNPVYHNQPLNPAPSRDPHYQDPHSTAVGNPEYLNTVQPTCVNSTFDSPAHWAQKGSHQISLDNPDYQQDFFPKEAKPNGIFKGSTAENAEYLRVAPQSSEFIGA
SMILES,viability at 10 µM [1],viability at 10 µM [2],melting point,inhibition at 10 µM (NF-κB),IC50 (NF-κB),inhibition at 0.15 µM (Recombinant EGFR kinase),"inhibition at 7.5 µM (TNFα production; 7.5 μM, LPS 100 ng/mL for 24 h, dTHP-1 cells, read-out: TNFα Production Inh % (7.5 μM))","inhibition at 15 µM (TNFα production; 15 μM, LPS 100 ng/mL for 24 h, dTHP-1 cells, read-out: TNFα Production Inh % (15 μM))",IC50 (TNFα production; [3]),"inhibition at 7.5 µM (IL-6 production; 7.5 μM, LPS 100 ng/mL for 24 h, dTHP-1 cells, read-out: IL-6 Production Inh % (7.5 μM))","inhibition at 15 µM (IL-6 production; 15 μM, LPS 100 ng/mL for 24 h, dTHP-1 cells, read-out: IL-6 Production Inh % (15 μM))",IC50 (IL-6 production; [3]),"Cell viability of dTHP-1 cells, 5 μM, LPS (dTHP−1 cells; 5 μM (so in the source), LPS 100 ng/mL for 24 h)","Cell viability of dTHP-1 cells, 5 μM, without LPS (dTHP−1 cells; 5 μM (so in the source), no LPS)","Cell viability of dTHP-1 cells, 7.5 μM, LPS (dTHP−1 cells; 7.5 μM, LPS 100 ng/mL for 24 h)","Cell viability of dTHP-1 cells, 7.5 μM, without LPS (dTHP−1 cells; 7.5 μM, no LPS)"
"CC(C)(C)c1ccc(CNC(=S)Nc2ccc3ncnc(Nc4cccc(Cl)c4)c3c2)cc1 [Compound 1, 1-(4-(tert-Butyl)benzyl)-3-(4-((3-chlorophenyl)amino)quinazolin-6-yl)thiourea]",73.9 ± 4.6%,91.1 ± 3.4%,203 to 205 °C,41.6 ± 3.8%,> 10 µM,42%,,,,,,,,,,
"COc1ccc(CNC(=S)Nc2ccc3ncnc(Nc4cccc(Cl)c4)c3c2)cc1 [Compound 2, 1-(4-((3-Chlorophenyl)amino)quinazolin-6-yl)-3-(4-methoxybenzyl)thiourea]",101 ± 7.4%,95.4 ± 1.9%,165 to 167 °C,94.6 ± 0.1%,1.7 µM,67%,32.5 ± 8.5%,60.4 ± 1.8%,10.2 ± 0.27 µM,76.2 ± 13.3%,87.5 ± 6.8%,1.2 ± 0.12 µM,78.8 ± 5.3,94.2 ± 1.6,57.5 ± 1.4,99.2 ± 1.5
"FC(F)(F)c1ccc(CNC(=S)Nc2ccc3ncnc(Nc4cccc(Cl)c4)c3c2)cc1 [Compound 3, 1-(4-((3-Chlorophenyl)amino)quinazolin-6-yl)-3-(4-(trifluoromethyl)benzyl)thiourea]",68.9 ± 6.4%,73.4 ± 4.3%,165 to 167 °C,46.5 ± 4.9%,> 10 µM,70%,,,,,,,,,,
"S=C(NCc1ccc(Cl)cc1)Nc1ccc2ncnc(Nc3cccc(Cl)c3)c2c1 [Compound 4, 1-(4-Chlorobenzyl)-3-(4-((3-chlorophenyl)amino)quinazolin-6-yl)thiourea]",95.9 ± 3.4%,98.1 ± 1.9%,166 to 168 °C,31.9 ± 9.6%,> 10 µM,56%,,,,,,,,,,
"Fc1ccc(CNC(=S)Nc2ccc3ncnc(Nc4cccc(Cl)c4)c3c2)cc1 [Compound 5, 1-(4-((3-Chlorophenyl)amino)quinazolin-6-yl)-3-(4-fluorobenzyl)thiourea]",67 ± 6.1%,65.3 ± 1.1%,164 to 166 °C,79.1 ± 0.8%,1.9 µM,72%,,,,,,,,,,
"COc1cccc(CNC(=S)Nc2ccc3ncnc(Nc4cccc(Cl)c4)c3c2)c1 [Compound 8, 1-(4-((3-Chlorophenyl)amino)quinazolin-6-yl)-3-(3-methoxybenzyl)thiourea]",100 ± 6.9%,101 ± 2.3%,183 to 185 °C,76.1 ± 2.6%,2.3 µM,40%,,,,,,,,,,
"S=C(NCc1cccs1)Nc1ccc2ncnc(Nc3cccc(Cl)c3)c2c1 [Compound 9, 1-(4-((3-Chlorophenyl)amino)quinazolin-6-yl)-3-(thiophen-2-yl-methyl)thiourea]",13.9 ± 0.7%,50.7 ± 2.4%,178.8 to 180.7 °C,98 ± 0.4%,2.8 µM,69.8%,,,,,,,,,,
"S=C(NCc1ccco1)Nc1ccc2ncnc(Nc3cccc(Cl)c3)c2c1 [Compound 10, 1-(4-((3-Chlorophenyl)amino)quinazolin-6-yl)-3-(furan-2-ylmethyl)thiourea]",71.7 ± 3.1%,74.4 ± 11.7%,195.6 to 198.2 °C,76.1 ± 2.3%,4.3 µM,79.1%,,,,,,,,,,
"S=C(NCc1cccnc1)Nc1ccc2ncnc(Nc3cccc(Cl)c3)c2c1 [Compound 11, 1-(4-((3-Chlorophenyl)amino)quinazolin-6-yl)-3-(pyridin-3-ylmethyl)thiourea]",62.8 ± 4%,98.9 ± 4.1%,205.6 to 207.9 °C,44.7 ± 5.8%,> 10 µM,66%,,,,,,,,,,
"O=C(NCc1cccc(Cl)c1)Nc1ccc2ncnc(Nc3cccc(Cl)c3)c2c1 [Compound 12, 1-(3-Chlorobenzyl)-3-(4-((3-chlorophenyl)amino)quinazolin-6-yl)urea]",114 ± 3.2%,101 ± 4.2%,225.5 to 227 °C,42.7 ± 9.3%,> 10 µM,34.6%,,,,,,,,,,
"O=C(NCc1cccc(F)c1)Nc1ccc2ncnc(Nc3cccc(Cl)c3)c2c1 [Compound 13, 1-(4-((3-Chlorophenyl)amino)quinazolin-6-yl)-3-(3-fluorobenzyl)urea]",95.5 ± 6.1%,104 ± 5%,210.8 to 212 °C,53.3 ± 10%,8.1 µM,23.3%,,,,,,,,,,
"C#Cc1cccc(Nc2ncnc3ccc(NC(=O)NCc4cccc(Cl)c4)cc23)c1 [Compound 14, 1-(3-Chlorobenzyl)-3-(4-((3-ethynylphenyl)amino)quinazolin-6-yl)urea]",110 ± 2.7%,98.6 ± 3%,222.4 to 228.8 °C,58.5 ± 0.9%,8 µM,44.5%,,,,,,,,,,
"O=C(NC(=O)c1ccccc1)Nc1ccc2ncnc(Nc3cccc(Cl)c3)c2c1 [Compound 15, N-((4-((3-Chlorophenyl)amino)quinazolin-6-yl)carbamoyl)benzamide]",114 ± 2.6%,100 ± 4.5%,252.4 to 254 °C,48.3 ± 9.3%,> 10 µM,26%,,,,,,,,,,
"O=C(NC(=S)Nc1ccc2ncnc(Nc3cccc(Cl)c3)c2c1)c1ccccc1 [Compound 16, N-((4-((3-Chlorophenyl)amino)quinazolin-6-yl)carbamothioyl)benzamide]",102 ± 4%,102 ± 1.6%,186.1 to 188.5 °C,58.2 ± 5.2%,7 µM,48.9%,,,,,,,,,,
